According to ChEMBL document CHEMBL5226338, “Molecular hybrids: A five-year survey on structures of multiple targeted hybrids of protein kinase inhibitors for cancer therapy” (Eur J Med Chem, 2021):

Tests used:
[1] = tested on: K562; experiment: Cytotoxicity against imatinib-resistant human K562 cells assessed as inhibition of cell growth; type: functional, cell-based
[2] = tested on: K562; experiment: Cytotoxicity against human K562 cells assessed as inhibition of cell growth; type: functional, cell-based
[3] = target: T1, Epidermal growth factor receptor (Homo sapiens, UniProt P00533); experiment: Inhibition of EGFR (unknown origin)
[4] = tested on: A549; experiment: Antiproliferative activity against human A549 cells assessed as inhibition of cell growth incubated for 48 hrs by MTT assay; type: functional, cell-based; conditions: A549, 48 h
[5] = target: T1, Epidermal growth factor receptor; experiment: Inhibition of EGFR (unknown origin) phosphorylation using kit-tyr4 peptide as substrate incubated for 1 hr in presence of ATP by UV-Vis spectrophotometer
[6] = target: T2, Histone deacetylase 1 (Homo sapiens, UniProt Q13547); experiment: Inhibition of full length human recombinant HDAC1 using AcLys-Tyr-Lys(e-acetyl)-AMC as substrate incubated for 24 hrs
[7] = target: Bcr/Abl fusion protein (Homo sapiens, UniProt P00519); experiment: Inhibition of BCR-Abl (unknown origin) incubated for 1 hr by ADP-glo assay; type: protein assay
[8] = target: T2, Histone deacetylase 1; experiment: Inhibition of recombinant HDAC1 (unknown origin) using Fluor-de-Lys as substrate incubated for 10 mins by fluorescence based analysis
[9] = target: Serine/threonine-protein kinase B-raf (Homo sapiens, UniProt P15056, V600E); experiment: Inhibition of full length human BRAF V600E mutant using His-tagged full length human MEK1 (K97R) as substrate incubated for 20 mins by [gamma-33P]ATP based filter-binding method
[10] = target: Histone deacetylase; experiment: Inhibition of HDAC in human HeLa cell nuclear extract using Boc-Lys (acetyl)-AMC as substrate preincubated for 15 mins followed by substrate addition and measured after 60 mins by fluorescence based analysis; type: subcellular, Nucleus
[11] = target: MAP kinase-interacting serine/threonine-protein kinase 1 (Homo sapiens) (UniProt Q9BUB5); experiment: Inhibition of MNK1 (unknown origin) at 1 uM incubated for 60 mins by HTRF assay relative to control
[12] = target: MAP kinase-interacting serine/threonine-protein kinase 2 (Homo sapiens) (UniProt Q9HBH9); experiment: Inhibition of MNK2 (unknown origin) at 1 uM incubated for 60 mins by HTRF assay relative to control
[13] = target: [Pyruvate dehydrogenase (acetyl-transferring)] kinase isozyme 1, mitochondrial (Homo sapiens, UniProt Q15118); experiment: Inhibition of human recombinant PDHK1 using KKKYHGHSMSDPGVSYRT as substrate incubated for 40 mins in presence of Mg/ATP mix by [gamma-32P]-ATP based scintillation counting analysis
[14] = Inhibition of sheep brain tubulin polymerization by DAPI staining based fluorescence analysis; type: tissue-based, Ovis aries
[15] = target: Tubulin beta (Homo sapiens) (UniProt P68371+Q9H4B7+Q13509+P04350+Q3ZCM7+P07437+Q13885+Q9BVA1+Q9BUF5+A6NNZ2); experiment: Inhibition of beta-tubulin polymerization in human HepG2 cells using TMB substrate by spectrophotometry analysis relative to control; type: cell-based; conditions: concentration not given here
[16] = target: Vascular endothelial growth factor receptor 2 (Homo sapiens, UniProt P35968); experiment: Inhibition of human VEGFR2 using TMB as substrate by ELISA
[17] = target: Tubulin beta; experiment: Inhibition of beta-tubulin polymerization (unknown origin) by ELISA; type: protein assay, Homo sapiens
[18] = target: Tubulin (Bos taurus, UniProt Q6B856+Q862L2+Q862F3); experiment: Inhibition of bovine brain tubulin polymerization incubated for 20 mins by spectrophotometric method; type: tissue-based
[19] = tested on: U-937; experiment: Antiproliferative activity against human U-937 cells assessed as inhibition of cell growth incubated for 72 hrs by MTT assay; type: functional, cell-based; conditions: U-937, 72 h
[20] = target: Cyclin-dependent kinase; experiment: Inhibition of CDK (unknown origin); type: protein assay, Homo sapiens
[21] = tested on: SK-MEL-1; experiment: Antiproliferative activity against human SK-MEL-1 cells assessed as inhibition of cell growth incubated for 72 hrs by MTT assay; type: functional, cell-based; conditions: SK-MEL-1, 72 h
[22] = target: T1, Epidermal growth factor receptor; experiment: Inhibition of EGFR (unknown origin) phosphorylation by ELISA
[23] = target: Tubulin beta; experiment: Inhibition of beta-tubulin polymerization (unknown origin) measured every 3 secs for 1 hr by spectrofluorometer; type: protein assay, Homo sapiens

T1 sequence (P00533 whole entry): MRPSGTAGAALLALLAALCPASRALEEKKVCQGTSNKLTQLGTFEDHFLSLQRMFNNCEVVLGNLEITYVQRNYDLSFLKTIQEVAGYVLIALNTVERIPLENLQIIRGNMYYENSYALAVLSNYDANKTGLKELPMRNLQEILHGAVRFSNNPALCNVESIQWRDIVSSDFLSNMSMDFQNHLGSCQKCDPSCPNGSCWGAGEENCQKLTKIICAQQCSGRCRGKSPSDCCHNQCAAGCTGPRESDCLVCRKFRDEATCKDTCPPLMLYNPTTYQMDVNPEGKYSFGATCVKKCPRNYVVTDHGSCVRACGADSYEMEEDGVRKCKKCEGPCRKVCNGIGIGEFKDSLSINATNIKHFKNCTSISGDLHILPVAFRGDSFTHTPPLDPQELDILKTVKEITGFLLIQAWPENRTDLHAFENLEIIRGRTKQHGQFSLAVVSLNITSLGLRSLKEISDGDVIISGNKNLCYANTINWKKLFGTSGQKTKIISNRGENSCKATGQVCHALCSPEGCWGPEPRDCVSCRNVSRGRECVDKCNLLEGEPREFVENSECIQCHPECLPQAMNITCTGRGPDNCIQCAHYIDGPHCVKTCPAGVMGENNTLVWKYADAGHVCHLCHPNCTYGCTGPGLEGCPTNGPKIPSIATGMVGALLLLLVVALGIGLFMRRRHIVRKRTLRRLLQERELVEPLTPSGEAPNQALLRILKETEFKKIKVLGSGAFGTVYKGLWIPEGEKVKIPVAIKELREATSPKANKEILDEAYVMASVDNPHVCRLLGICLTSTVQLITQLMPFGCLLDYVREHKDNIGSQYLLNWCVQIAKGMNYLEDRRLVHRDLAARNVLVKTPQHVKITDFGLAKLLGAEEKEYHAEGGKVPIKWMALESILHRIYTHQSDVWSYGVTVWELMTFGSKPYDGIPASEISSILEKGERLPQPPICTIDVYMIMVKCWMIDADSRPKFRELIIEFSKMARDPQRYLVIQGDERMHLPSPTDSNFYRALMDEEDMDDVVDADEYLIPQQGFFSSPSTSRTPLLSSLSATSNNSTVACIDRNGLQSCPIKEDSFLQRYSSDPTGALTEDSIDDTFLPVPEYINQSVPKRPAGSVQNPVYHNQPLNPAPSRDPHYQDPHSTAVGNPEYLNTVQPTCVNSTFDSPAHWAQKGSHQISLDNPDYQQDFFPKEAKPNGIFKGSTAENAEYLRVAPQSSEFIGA
T2 sequence (Q13547 whole entry, the tested form may be a part): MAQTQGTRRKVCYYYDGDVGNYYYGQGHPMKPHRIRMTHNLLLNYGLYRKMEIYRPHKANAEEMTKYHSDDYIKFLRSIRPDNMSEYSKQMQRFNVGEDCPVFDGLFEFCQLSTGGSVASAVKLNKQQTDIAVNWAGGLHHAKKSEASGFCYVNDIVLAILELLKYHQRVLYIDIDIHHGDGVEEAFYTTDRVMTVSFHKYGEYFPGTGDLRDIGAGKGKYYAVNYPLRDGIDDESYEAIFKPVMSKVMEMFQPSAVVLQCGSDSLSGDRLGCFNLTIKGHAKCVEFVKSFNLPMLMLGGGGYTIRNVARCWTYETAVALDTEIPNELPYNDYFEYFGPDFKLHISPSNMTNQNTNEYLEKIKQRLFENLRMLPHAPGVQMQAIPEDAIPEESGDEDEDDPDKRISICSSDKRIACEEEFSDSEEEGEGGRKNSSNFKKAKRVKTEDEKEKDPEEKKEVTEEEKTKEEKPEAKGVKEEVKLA
Chain of [Pyruvate dehydrogenase (acetyl-transferring)] kinase isozyme 1, mitochondrial (Q15118 whole entry): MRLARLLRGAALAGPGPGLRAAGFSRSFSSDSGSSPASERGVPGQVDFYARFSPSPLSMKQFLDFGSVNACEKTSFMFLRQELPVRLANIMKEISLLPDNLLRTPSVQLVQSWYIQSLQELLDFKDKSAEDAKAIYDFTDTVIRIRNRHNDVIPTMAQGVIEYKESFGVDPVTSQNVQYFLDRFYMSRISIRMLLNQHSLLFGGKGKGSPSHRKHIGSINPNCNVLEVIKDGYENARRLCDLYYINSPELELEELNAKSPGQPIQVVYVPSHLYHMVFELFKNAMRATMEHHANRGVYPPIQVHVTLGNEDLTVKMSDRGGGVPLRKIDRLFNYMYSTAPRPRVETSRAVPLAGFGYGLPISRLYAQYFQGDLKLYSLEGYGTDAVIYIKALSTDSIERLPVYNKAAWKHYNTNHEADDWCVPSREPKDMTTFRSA
Chain of MAP kinase-interacting serine/threonine-protein kinase 2 (Homo sapiens) (Q9HBH9 whole entry, looked up): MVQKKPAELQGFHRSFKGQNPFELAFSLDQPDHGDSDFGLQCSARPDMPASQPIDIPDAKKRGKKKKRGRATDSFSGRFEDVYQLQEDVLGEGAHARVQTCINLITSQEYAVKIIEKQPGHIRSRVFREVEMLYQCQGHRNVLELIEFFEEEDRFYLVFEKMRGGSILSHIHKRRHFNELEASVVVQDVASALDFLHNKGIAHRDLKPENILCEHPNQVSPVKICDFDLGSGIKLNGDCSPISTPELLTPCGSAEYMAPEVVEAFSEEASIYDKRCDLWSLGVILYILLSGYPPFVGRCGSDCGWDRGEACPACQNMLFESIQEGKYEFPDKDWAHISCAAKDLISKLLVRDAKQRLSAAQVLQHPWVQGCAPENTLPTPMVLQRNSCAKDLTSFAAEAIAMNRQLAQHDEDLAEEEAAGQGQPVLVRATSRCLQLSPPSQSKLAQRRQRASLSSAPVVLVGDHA
Chain of Serine/threonine-protein kinase B-raf (P15056 2-766 V600E limits assumed): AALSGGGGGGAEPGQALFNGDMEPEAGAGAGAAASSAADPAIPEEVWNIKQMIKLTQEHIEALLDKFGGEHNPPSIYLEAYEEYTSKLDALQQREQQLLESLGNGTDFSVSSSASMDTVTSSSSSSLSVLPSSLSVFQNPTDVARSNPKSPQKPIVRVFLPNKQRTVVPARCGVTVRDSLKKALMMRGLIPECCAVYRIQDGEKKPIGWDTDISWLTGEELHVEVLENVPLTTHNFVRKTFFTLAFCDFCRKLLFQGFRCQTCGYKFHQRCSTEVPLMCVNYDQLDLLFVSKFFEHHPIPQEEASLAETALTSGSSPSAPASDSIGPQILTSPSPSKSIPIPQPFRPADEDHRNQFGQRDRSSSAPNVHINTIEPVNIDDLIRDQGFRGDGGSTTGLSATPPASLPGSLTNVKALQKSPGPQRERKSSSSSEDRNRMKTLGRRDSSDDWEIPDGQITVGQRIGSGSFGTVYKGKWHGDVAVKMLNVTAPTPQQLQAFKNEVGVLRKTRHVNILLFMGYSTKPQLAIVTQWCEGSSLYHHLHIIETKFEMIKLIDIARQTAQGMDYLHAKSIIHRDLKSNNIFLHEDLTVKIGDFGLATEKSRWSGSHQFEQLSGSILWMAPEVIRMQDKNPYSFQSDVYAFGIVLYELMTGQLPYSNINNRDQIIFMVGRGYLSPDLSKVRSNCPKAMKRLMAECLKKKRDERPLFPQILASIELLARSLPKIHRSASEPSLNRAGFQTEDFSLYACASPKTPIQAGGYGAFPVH
Chain of Vascular endothelial growth factor receptor 2 (P35968 whole entry): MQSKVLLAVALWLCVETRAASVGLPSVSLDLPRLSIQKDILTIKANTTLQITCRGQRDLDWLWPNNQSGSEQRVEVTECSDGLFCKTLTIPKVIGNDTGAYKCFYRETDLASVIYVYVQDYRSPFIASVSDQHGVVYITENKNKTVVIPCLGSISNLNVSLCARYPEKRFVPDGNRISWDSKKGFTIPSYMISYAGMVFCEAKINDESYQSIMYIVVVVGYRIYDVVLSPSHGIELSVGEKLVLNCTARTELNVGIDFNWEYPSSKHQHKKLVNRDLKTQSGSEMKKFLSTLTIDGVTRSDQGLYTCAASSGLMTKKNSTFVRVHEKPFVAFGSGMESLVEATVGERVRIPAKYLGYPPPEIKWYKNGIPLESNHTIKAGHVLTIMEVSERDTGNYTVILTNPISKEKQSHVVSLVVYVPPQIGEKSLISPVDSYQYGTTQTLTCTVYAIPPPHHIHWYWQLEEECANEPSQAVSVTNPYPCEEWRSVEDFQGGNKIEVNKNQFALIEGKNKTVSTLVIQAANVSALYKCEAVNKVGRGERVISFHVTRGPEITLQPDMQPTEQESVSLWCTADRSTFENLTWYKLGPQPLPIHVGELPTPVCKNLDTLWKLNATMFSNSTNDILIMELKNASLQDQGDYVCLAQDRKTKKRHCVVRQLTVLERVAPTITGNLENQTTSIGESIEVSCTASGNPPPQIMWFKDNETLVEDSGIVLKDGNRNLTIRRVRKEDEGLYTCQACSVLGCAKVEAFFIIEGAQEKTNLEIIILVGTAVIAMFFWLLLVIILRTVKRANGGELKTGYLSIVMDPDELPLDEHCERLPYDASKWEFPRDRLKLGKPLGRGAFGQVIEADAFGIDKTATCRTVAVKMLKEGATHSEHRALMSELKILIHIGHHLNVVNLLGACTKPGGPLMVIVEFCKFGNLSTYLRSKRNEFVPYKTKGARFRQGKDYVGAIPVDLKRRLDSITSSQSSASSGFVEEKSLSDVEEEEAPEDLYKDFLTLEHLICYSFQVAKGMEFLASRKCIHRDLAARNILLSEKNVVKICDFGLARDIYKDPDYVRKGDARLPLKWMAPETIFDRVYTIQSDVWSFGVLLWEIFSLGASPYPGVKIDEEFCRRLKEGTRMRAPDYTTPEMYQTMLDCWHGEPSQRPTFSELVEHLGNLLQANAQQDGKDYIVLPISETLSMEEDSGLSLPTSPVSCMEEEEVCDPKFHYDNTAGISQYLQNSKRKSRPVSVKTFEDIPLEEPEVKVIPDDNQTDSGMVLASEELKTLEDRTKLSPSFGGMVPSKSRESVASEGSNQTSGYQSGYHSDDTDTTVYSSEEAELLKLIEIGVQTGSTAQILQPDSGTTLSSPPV

## COc1ccc(S(=O)(=O)N2CCc3cccc(NC=O)c32)cc1
[1]
  IC50: 410 nM
[2]
  IC50: 390 nM

## Cc1cc(NC2=NC(=O)/C(=C/c3c4ccccc4cc4ccccc34)S2)no1
[3]
  IC50: 45 nM

## COc1ccc(CNc2nc3ccccc3c(NCc3ccc(OC)cc3)c2[N+](=O)[O-])cc1
[4]
  IC50: 6500 nM
[5]
  IC50: 220 nM

## CCN1CCN(Cc2cc(Nc3ncc(C(=O)Nc4ccccc4N)s3)nc(C)n2)CC1
[6]
  IC50: 150 nM
[7]
  IC50: 21.2 nM

## COc1ccc(NC(=O)Nc2ccc(Oc3ccc(C(=O)c4ncc[nH]4)cc3)cc2)cc1
[8]
  IC50: 635 nM
[9]
  IC50: 1700 nM

## O=C(CCCCCCNc1ccc2ncnc(Nc3ccc(F)cc3)c2n1)NO
[10]
  IC50: 780 nM
[11]
  inhibition: 54%
[12]
  inhibition: 70%

## COc1ccc(C(=O)c2cc(OC)c(OC)c(OC)c2)cc1OC(=O)C(Cl)Cl
[13]
  IC50: 12000 nM
[14]
  IC50: 260 nM

## COc1ccc(NC(=O)c2c(Nc3ccccc3)sc(C(=O)N/N=C/c3ccc(O)c(O)c3)c2NC(C)=O)cc1
[15]
  inhibition: 86%
[16]
  IC50: 1290 nM

## O=C(Nc1ccccc1C(=O)N/N=C/c1ccc(O)cc1O)c1ccco1
[17]
  IC50: 108.4 nM

## CC(=O)O[C@H]1CC[C@]2(C)[C@H]3CC=C4[C@@H]5CC(C)(C)CC[C@]5(C(=O)OCCCC[N+](=O)[O-])CC[C@@]4(C)[C@]3(C)CC[C@H]2C1(C)CO (stereo not given in full)
[3]
  IC50: 10 nM

## COc1ccc(CCNc2nc(N)c(C(=O)c3cc(OC)c(OC)c(OC)c3)s2)cc1
[18]
  IC50: > 20000 nM
[19]
  IC50: 5700 nM
[20]
  IC50: > 10000 nM
[21]
  IC50: 8000 nM

## CSc1nn(-c2ccc(Br)cc2)c2nc(C)nc(Nc3ccc(OCCCC[N+](=O)[O-])cc3)c12
[3]
  IC50: 3000 nM

## O=C(/C=C/c1ccc(F)cc1)c1cc(Br)cc2cc(-c3ccccc3)oc12
[22]
  IC50: 90 nM
[23]
  IC50: 5510 nM
